Molecular target: T1, human capsaicin receptor (Homo sapiens, UniProt Q8NER1)
T1 construct: pBK-CMV expression construct encoding the full length human capsaicin receptor; expressed in transfected cells
Assay: Calcium mobilization assay, determination of antagonist activity (Example 6)
Type: cell-based
Details: Table II
Procedure: A cDNA encoding full length human capsaicin receptor (SEQ ID NO: 1, 2 or 3 of U.S. Pat. No. 6,482,611) was subcloned in the plasmid pBK-CMV (Stratagene, La Jolla, Calif.) for recombinant expression in mammalian cells.
Human embryonic kidney (HEK293) cells were transfected with the pBK-CMV expression construct encoding the full length human capsaicin receptor using standard methods. The transfected cells were selected for two weeks in media containing G418 (400 μg/ml) to obtain a pool of stably transfected cells. Independent clones were isolated from this pool by limiting dilution to obtain clonal stable cell lines for use in subsequent experiments.
This Example illustrates representative calcium mobilization assays for use in evaluating test compounds for agonist and antagonist activity.
Cells transfected with expression plasmids (as described in Example 4) and thereby expressing human capsaicin receptor are seeded and grown to 70-90% confluency in FALCON black-walled, clear-bottomed 96-well plates (#3904, BECTON-DICKINSON, Franklin Lakes, N.J.). The culture medium is emptied from the 96 well plates and FLUO-3 AM calcium sensitive dye (Molecular Probes, Eugene, Oreg.) is added to each well (dye solution: 1 mg FLUO-3 AM, 440 μL DMSO and 440 pi 20% pluronic acid in DMSO, diluted 1:250 in Krebs-Ringer HEPES (KRH) buffer (25 mM HEPES, 5 mM KCl, 0.96 mM NaH2PO4, 1 mM MgSO4, 2 mM CaCl2, 5 mM glucose, 1 mM probenecid, pH 7.4), 50 μl diluted solution per well). Plates are covered with aluminum foil and incubated at 37° C. for 1-2 hours in an environment containing 5% CO2. After the incubation, the dye is emptied from the plates, and the cells are washed once with KRH buffer, and resuspended in KRH buffer.
To measure the ability of a test compound to agonize or antagonize a calcium mobilization response in cells expressing capsaicin receptors to capsaicin or other vanilloid agonist, the EC50 of the agonist capsaicin is first determined. An additional 20 μl of KRH buffer and 1 μl DMSO is added to each well of cells, prepared as described above. 100 μl capsaicin in KRH buffer is automatically transferred by the FLIPR instrument to each well. Capsaicin-induced calcium mobilization is monitored using either FLUOROSKAN ASCENT (Labsystems; Franklin, Mass.) or FLIPR (fluorometric imaging plate reader system; Molecular Devices, Sunnyvale, Calif.) instruments. Data obtained between 30 and 60 seconds after agonist application are used to generate an 8-point concentration response curve, with final capsaicin concentrations of 1 nM to 3 μM. KALEIDAGRAPH software (Synergy Software, Reading, Pa.) is used to fit the data to the equation: y=a*(1/(1+(b/x)^c)) to determine the 50% excitatory concentration (EC50) for the response. In this equation, y is the maximum fluorescence signal, x is the concentration of the agonist or antagonist (in this case, capsaicin), a is the Emax, b corresponds to the EC50 value and c is the Hill coefficient. Determination of Agonist Activity
Test compounds are dissolved in DMSO, diluted in 20 μl KRH buffer so that the final concentration of test compounds in the assay well is between 1 μM and 5 μM, and added to cells prepared as described above. The 96 well plates containing prepared cells and test compounds are incubated in the dark, at room temperature for 0.5 to 6 hours. It is important that the incubation not continue beyond 6 hours. Just prior to determining the fluorescence response, 100 pi capsaicin in KRH buffer at twice the EC50 concentration determined as described above is automatically added by the FLIPR instrument to each well of the 96 well plate for a final sample volume of 200 μl and a final capsaicin concentration equal to the EC50. The final concentration of test compounds in the assay wells is between 1 μM and 5 μM. […]

[1] = determined as described in Example 6 (antagonist activity), "*" = 1 micromolar or less
[2] = determined as described in Example 6, class symbol

T1 sequence (Q8NER1 whole entry): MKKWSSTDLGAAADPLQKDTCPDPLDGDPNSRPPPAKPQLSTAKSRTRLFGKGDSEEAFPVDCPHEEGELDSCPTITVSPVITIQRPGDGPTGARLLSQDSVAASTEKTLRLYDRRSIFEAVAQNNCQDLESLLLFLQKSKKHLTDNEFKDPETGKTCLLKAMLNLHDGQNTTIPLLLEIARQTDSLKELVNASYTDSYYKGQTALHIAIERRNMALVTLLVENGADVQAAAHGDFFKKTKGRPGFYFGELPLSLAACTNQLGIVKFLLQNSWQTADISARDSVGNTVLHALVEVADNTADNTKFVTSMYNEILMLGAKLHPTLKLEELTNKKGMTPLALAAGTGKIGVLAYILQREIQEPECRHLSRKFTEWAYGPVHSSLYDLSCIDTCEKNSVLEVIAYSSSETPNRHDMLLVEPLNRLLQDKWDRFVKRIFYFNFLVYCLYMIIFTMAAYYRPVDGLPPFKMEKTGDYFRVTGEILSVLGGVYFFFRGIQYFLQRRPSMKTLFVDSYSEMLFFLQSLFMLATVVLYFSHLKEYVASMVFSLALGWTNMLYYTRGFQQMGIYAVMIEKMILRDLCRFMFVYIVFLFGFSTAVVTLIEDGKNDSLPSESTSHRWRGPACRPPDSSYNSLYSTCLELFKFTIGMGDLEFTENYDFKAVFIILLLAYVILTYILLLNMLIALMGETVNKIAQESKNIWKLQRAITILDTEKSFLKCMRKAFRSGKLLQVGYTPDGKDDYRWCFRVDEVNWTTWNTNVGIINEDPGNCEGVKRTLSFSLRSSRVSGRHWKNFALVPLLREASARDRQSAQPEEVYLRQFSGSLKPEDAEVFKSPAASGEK

Compound | IC50 [1] [nM] | further results
C[C@@H]1CCCN1c1nc(-c2ccc(Cl)c(F)c2)cc(N2CCN(c3nccnc3Cl)C[C@@H]2C)n1 (relative stereo) [Example 969, rel-4-(4-chloro-3-fluorophenyl)-6-[(2R)-4-(3-chloropyrazin-2-yl)-2-methylpiperazin-1-yl]-2-[(2S)-2-methylpyrrolidin-1-yl]pyrimidine] | ≤ 1000 | 
C[C@@H]1CN(c2nccnc2Cl)CCN1c1cc(-c2ccc(F)c(F)c2)nc(Cl)n1 (stereo in doubt) [Example 823, 2-chloro-4-[4-(3-chloropyrazin-2-yl)-2-methylpiperazin-1-yl]-6-(3,4-difluorophenyl)pyrimidine] | ≤ 1000 | 
C[C@@H]1CN(c2ncccc2Cl)CCN1c1cc(-c2ccc(F)cc2)nc(S(C)(=O)=O)n1 (stereo in doubt) [Example 840, 4-[4-(3-chloropyridin-2-yl)-2-methylpiperazin-1-yl]-6-(4-fluorophenyl)-2-(methylsulfonyl)pyrimidine] | ≤ 1000 | 
CCOC(=O)c1ccc(-c2cc(N3CCN(c4ncccc4Cl)C[C@H]3C)nc(N3CCCC3C)n2)cc1 (stereo in doubt) [Example 867, ethyl 4-[6-[4-(3-chloropyridin-2-yl)-2-methylpiperazin-1-yl]-2-(2-methylpyrrolidin-1-yl)pyrimidin-4-yl]benzoate] | ≤ 1000 | 
CC1CCCN1c1nc(-c2cccc(C#N)c2)cc(N2CCN(c3ncccc3Cl)C[C@H]2C)n1 (stereo in doubt) [Example 869, 3-[6-[4-(3-chloropyridin-2-yl)-2-methylpiperazin-1-yl]-2-(2-methylpyrrolidin-1-yl)pyrimidin-4-yl]benzonitrile] | ≤ 1000 | 
C[C@@H]1CN(c2ncccc2Cl)CCN1c1cc(-c2cccc(C#N)c2)nc(N2CCOCC2)n1 (stereo in doubt) [Example 870, 3-{6-[4-(3-chloropyridin-2-yl)-2-methylpiperazin-1-yl]-2-morpholin-4-ylpyrimidin-4-yl}benzonitrile] | ≤ 1000 | 
CC(=O)c1cccc(-c2cc(N3CCN(c4ncccc4Cl)C[C@H]3C)nc(N3CCCC3C)n2)c1 (stereo in doubt) [Example 888, 1-{3-[6-[4-(3-chloropyridin-2-yl)-2-methylpiperazin-1-yl]-2-(2-methylpyrrolidin-1-yl)pyrimidin-4-yl]phenyl}ethanone] | ≤ 1000 | 
Cc1cc(-c2cc(Cl)nc(N3CCN(c4ncccc4Cl)C[C@@H]3C)n2)ccc1F (stereo in doubt) [Example 899, 4-chloro-2-[4-(3-chloropyridin-2-yl)-2-methylpiperazin-1-yl]-6-(4-fluoro-3-methylphenyl)pyrimidine] | ≤ 1000 | 
Cc1cc(-c2cc(N3CCN(c4ncccc4Cl)C[C@@H]3C)nc(N3CCCC3C)n2)ccc1F (stereo in doubt) [Example 903, 4-[4-(3-chloropyridin-2-yl)-2-methylpiperazin-1-yl]-6-(4-fluoro-3-methylphenyl)-2-(2-methylpyrrolidin-1-yl)pyrimidine] | ≤ 1000 | 
C[C@@H]1CN(c2nccnc2Cl)CCN1c1cc(-c2ccc(F)c(Cl)c2)nc(Cl)n1 (stereo in doubt) [Example 907, 2-chloro-4-(3-chloro-4-fluorophenyl)-6-[4-(3-chloropyrazin-2-yl)-2-methylpiperazin-1-yl]pyrimidine] | ≤ 1000 | 
CC1CN(c2nccnc2Cl)CCN1c1nc(-c2ccc(F)c(Cl)c2)cc(N2CCC[C@H]2C)n1 (stereo in doubt) [Example 943, 4-(3-chloro-4-fluorophenyl)-2-[(2R)-4-(3-chloropyrazin-2-yl)-2-methylpiperazin-1-yl]-6-[(2R)-2-methylpyrrolidin-1-yl]pyrimidine] | ≤ 1000 | 
CC1CCCN1c1nc(-c2ccc(F)c(Cl)c2)cc(N2CCN(c3ncc(Cl)cc3Cl)C[C@H]2C)n1 (stereo in doubt) [Example 954, 4-(3-chloro-4-fluorophenyl)-6-[4-(3,5-dichloropyridin-2-yl)-2-methylpiperazin-1-yl]-2-(2-methylpyrrolidin-1-yl)pyrimidine] | ≤ 1000 | 
CC1CCCN1c1nc(-c2ccc(F)cc2)cc(N2CCN(c3nc(C#N)ccc3C#N)C[C@H]2C)n1 (stereo in doubt) [Example 1014, 6-{4-[6-(4-fluorophenyl)-2-(2-methylpyrrolidin-1-yl)pyrimidin-4-yl]-3-methylpiperazin-1-yl}pyridine-2,5-dicarbonitrile] |  | IC50 (IC50 determined as described in Example 6 (antagonist activity, calcium mobilization)): ≤ 1000 nM
Cc1cccc(-c2nc(N3CCOCC3)nc(N3CCN(c4ccccn4)CC3)n2)c1 [Example 234] |  | IC50 [2]: ≤ 1000 nM
CC(C)c1cccc(-c2nc(N3CCOCC3)nc(N3CCN(c4ccccn4)CC3)n2)c1 [Example 235, 2-(3-isopropylphenyl)-4-morpholin-4-yl-6-(4-pyridin-2-ylpiperazin-1-yl)-1,3,5-triazine] |  | IC50 [2]: ≤ 1000 nM
Cc1cc(C)cc(-c2nc(N3CCOCC3)nc(N3CCN(c4ccccn4)CC3)n2)c1 [Example 236, 2-(3,5-dimethylphenyl)-4-morpholin-4-yl-6-(4-pyridin-2-ylpiperazin-1-yl)-1,3,5-triazine] |  | IC50 [2]: ≤ 1000 nM
CCc1cccc(-c2nc(N3CCOCC3)nc(N3CCN(c4ccccn4)CC3)n2)c1 [Example 237, 2-(3-ethylphenyl)-4-morpholin-4-yl-6-(4-pyridin-2-ylpiperazin-1-yl)-1,3,5-triazine] |  | IC50 [2]: ≤ 1000 nM
Cc1cccc(-c2nc(N3CCOCC3)nc(N3CCN(c4ncccc4C(F)(F)F)CC3)n2)c1 [Example 238, 2-(3-methylphenyl)-4-morpholin-4-yl-6-{4-[3-(trifluoromethyl)pyridin-2-yl]piperazin-1-yl}-1,3,5-triazine] |  | IC50 [2]: ≤ 1000 nM

Now from value to compound, other results behind:

IC50 [1] [nM] | Compound | further results
≤ 1000 | C[C@@H]1CN(c2ncccc2Cl)CCN1c1cc(-c2ccc(F)c(Cl)c2)nc(Cl)n1 (stereo in doubt) [Example 827, 2-chloro-4-(3-chloro-4-fluorophenyl)-6-[4-(3-chloropyridin-2-yl)-2-methylpiperazin-1-yl]pyrimidine] | 
≤ 1000 | CSc1nc(-c2ccc(F)cc2)cc(N2CCN(c3ncccc3Cl)C[C@H]2C)n1 (stereo in doubt) [Example 839, 4-[4-(3-chloropyridin-2-yl)-2-methylpiperazin-1-yl]-6-(4-fluorophenyl)-2-(methylthio)pyrimidine] | 
≤ 1000 | C[C@@H]1CN(c2ncccc2Cl)CCN1c1cc(-c2ccc(F)cc2)nc(N2CCCC2)n1 (stereo in doubt) [Example 841, 4-[4-(3-chloropyridin-2-yl)-2-methylpiperazin-1-yl]-6-(4-fluorophenyl)-2-pyrrolidin-1-ylpyrimidine] | 
≤ 1000 | CC1CCCN1c1nc(-c2ccc(F)cc2)cc(N2CCN(c3ncccc3Cl)C[C@H]2C)n1 (stereo in doubt) [Example 842, 4-[4-(3-chloropyridin-2-yl)-2-methylpiperazin-1-yl]-6-(4-fluorophenyl)-2-(2-methylpyrrolidin-1-yl)pyrimidine] | 
≤ 1000 | Cc1cc(-c2cc(N3CCN(c4nccnc4Cl)C[C@H]3C)nc(N3CCCC3C)n2)ccc1F (stereo in doubt) [Example 915, 4-[4-(3-chloropyrazin-2-yl)-2-methylpiperazin-1-yl]-6-(4-fluoro-3-methylphenyl)-2-(2-methylpyrrolidin-1-yl)pyrimidine] | 
≤ 1000 | C[C@H]1CN(c2nccnc2Cl)CCN1c1cc(-c2ccc(F)c(F)c2)nc(N2CCOCC2)n1 (stereo in doubt) [Example 939, 4-[4-[4-(3-chloropyrazin-2-yl)-2-methylpiperazin-1-yl]-6-(3,4-difluorophenyl)pyrimidin-2-yl]morpholine] | 

— patent US7566712B2, “Biaryl piperazinyl-pyridine analogues” (Neurogen Corporation, priority 2003, dated 2009)
